The results in this text go back to the supplement of paper PMC11208160.
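Further: IS621 recombinase and bridge RNA in Escherichia coli cells.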

The nature of the series: recombinant barcode read abundance after kanamycin selection (control-corrected) (log10(CPM+1)); higher = more efficient recombination; sequences stand for … in AGTGCAGAGAAAATCGGCCAGTTTTCTCTGCCTGCAGTCCGCATGCCGT…AGATTTATGCAGCGGACTGCCTTTCTCCCAAAGTGATAAACCGGACAGTATCATGGACCGGTTTTCCCGGTAATCCGTATTTGCAAGGTTGGTTTCACT; site = the 11-nt target. In a few lines:
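A promoter, a target, a barcode and the first 104 bridge RNA bases under J23119 made up each oligo. Oligos were Gibson-cloned into a vector bearing the other 73 bp and a T7-inducible recombinase, then co-electroporated into E. coli with a donor plasmid and plated in duplicate on chloramphenicol/ampicillin LB agar (control) or chloramphenicol/ampicillin/kanamycin with 0.1 mM IPTG. Recombination efficiency is the averaged, control-corrected counts per million of recombinant-junction barcodes. Reported values are log10(CPM+1).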
In the case of “CAGGCGCCTTGGGTTCTAACCTGTTGCCT (site CAGGCGACTAG)”, the “recombinant barcode read abundance (log10)” value was 0.335. The result for “CAGGCGCCTTGGGTTCTAACCTGTTGCCT (site CAGGCGCCTAG)” reads 0.979; that for “CAGGCGCCTTGGGTTCTAACCTGTTGCCT (site CAGGCGGCTAG)”, 0.178. With “CAGGCGCCTTGGGTTCTAACCTGTTGCCT (site CAGGCGTCTAG)” the figure was 0.527; with “CAGGCGTCTTGGGTTCTAACCTGTTGCCT (site CAGGCGACTAG)”, 0.109; with “CAGGCGTCTTGGGTTCTAACCTGTTGCCT (site CAGGCGCCTAG)”, 0.289. With “CAGGCGTCTTGGGTTCTAACCTGTTGCCT (site CAGGCGGCTAG)” the figure was 0.111; with “CAGGCGTCTTGGGTTCTAACCTGTTGCCT (site CAGGCGTCTAG)”, 0.59; with “CAGGGGACTTGGGTTCTAACCTGTTGCCG (site CAAGGGACTCC)”, 0.177. On to “CAGGGGACTTGGGTTCTAACCTGTTGCCG (site CAGGGGACTCG)”, for which the “recombinant barcode read abundance (log10)” value was determined as 0.734. As to “CAGGGGTCTTGGGTTCTAACCTGTTGCAT (site AGCCTCCCTTG)”, the “recombinant barcode read abundance (log10)” value is 0.0284.

As for “CAGGGGTCTTGGGTTCTAACCTGTTGCAT (site CAGGGGTCTAT)”, the “recombinant barcode read abundance (log10)” value is 2.04. With “CAGTAATCTTGGGTTCTAACCTGTTGCCT (site CAGTAATCTAG)” the figure was 0.683. For the sequence “CAGTAATCTTGGGTTCTAACCTGTTGCCT (site CAGTACTCTAG)”, the “recombinant barcode read abundance (log10)” value is 0.138. With “CAGTAATCTTGGGTTCTAACCTGTTGCCT (site CAGTAGTCTAG)” the figure was 0.169. The result for “CAGTAATCTTGGGTTCTAACCTGTTGCCT (site CAGTATTCTAG)” reads 0. With “CAGTCTACTTGGGTTCTAACCTGTTGCCT (site CAGTCTACTAG)” the figure was 0.115. Consider “CAGTCTACTTGGGTTCTAACCTGTTGCCT (site CCGTCTACTAG)”, for which the “recombinant barcode read abundance (log10)” value stood at 0.26. The result for “CAGTCTACTTGGGTTCTAACCTGTTGCCT (site CGGTCTACTAG)” reads 0.132; that for “CAGTCTACTTGGGTTCTAACCTGTTGCCT (site CTGTCTACTAG)”, 0.0878; that for “CATAACTCTTGGGTTCTAACCTGTTGCCT (site AATAACTCTAG)”, 0.0585. The result for “CATAACTCTTGGGTTCTAACCTGTTGCCT (site CATAACTCTAG)” reads 1.3; that for “CATAACTCTTGGGTTCTAACCTGTTGCCT (site GATAACTCTAG)”, 0.331. The result for “CATAACTCTTGGGTTCTAACCTGTTGCCT (site TATAACTCTAG)” reads 0.0747; that for “CATAAGCCTTGGGTTCTAACCTGTTGCCT (site CATAAGCCTAG)”, 0.633; that for “CATAAGCCTTGGGTTCTAACCTGTTGCCT (site CATCAGCCTAG)”, 0.07.

“CATAAGCCTTGGGTTCTAACCTGTTGCCT (site CATGAGCCTAG)”: the “recombinant barcode read abundance (log10)” value turned out to be 0.0152. As for “CATAAGCCTTGGGTTCTAACCTGTTGCCT (site CATTAGCCTAG)”, the “recombinant barcode read abundance (log10)” value was 0.0852. With “CATAGATCTTGGGTTCTAACCTGTTGCAT (site ATCTAGGCTCG)” the figure was 0.0128. The result for “CATAGATCTTGGGTTCTAACCTGTTGCAT (site CATAGATCTAT)” reads 1.22; that for “CATAGTCCTTGGGTTCTAACCTGTTGCCT (site CAGAGTCCTAA)”, 0.0573. The result for “CATAGTCCTTGGGTTCTAACCTGTTGCCT (site CATAGTCCTAG)” reads 0.605.
